According to US10987319B2, “TFEB activator C1 ameliorates app and tau pathology and rescues cognitive deficits in neurodegenerative diseases” (Hong Kong Baptist University, priority 2018, dated 2021):

Tests used:
[1] = system: APP, CTFs, phosphorylated Tau, total Tau, TFEB, LC3-II; assay: Western blotting of hippocampus, female 3×Tg mice; type: in vivo
Method: Homozygous 3×Tg mice (APP KM670/671NL (Swedish), MAPT P301L, PSEN1 M146V) were produced in Hong Kong Baptist University animal house and maintained at 23±2° C. temperature, 60±15% relative humidity with free access to food and water ad libitum.
Brain tissues were lysed with RIPA buffer (TBS with 1% NP-40, 1% sodium deoxycholic acid, 0.1% SDS, and protease phosphatase inhibitor cocktails) and centrifuged at 15,000 RPM for 30 min. Supernatant is collected and the pellets were further lysed with 2% SDS in RIPA buffer. Protein concentration was estimated by BCA assay. […] Protein chemiluminescence signal was detected by using ECL kit and quantified using ImageJ software.

5×FAD mice = assay: Long-term potentiation (TBS, MED64 multi-electrode array) in hippocampal slices of treated mice; type: in vivo; details: female 5×FAD mice, 10 mg/kg oral 3 months, P<0.001
Method: Heterozygous male 5×FAD mice purchased from Jackson laboratory (#006554) were maintained HKBU animal house at 23±2 OC and 60-15% relative humidity with free access to feed and water ad libitum. Male 5×FAD mice were bred with female wild-type C57BL/6. The produced heterozygous litters were maintained until their age 2 months. At 2 months age tail sample is collected in Non-ionic detergent buffer (50 mM KCL, 10 mM Tris-HCL, 2.5 mM mgCl2, 0.1 mg/ml Gelatin, 0.45% v/v NP-40, 0.45% v/v Tween 20 and 100 μgm/ml Proteinase K). Tail samples were incubated in 55° C. for overnight and denatured at 95° C. for 5 mins. Denatured samples were centrifuged, and supernatant is used for genotyping. Mice tail samples were genotyped using standard PCR protocol by using GoTaq G2 Green Master Mix (M7822), for APP, Forward 5′-[…]-3′ (SEQ ID NO: 81) and reverse, 5′-CGGGGGTCTAGTTCTGCAT-3′ (SEQ ID NO: 82). […]
Brain slice preparation: Wild type and 5× mice treated with or without C1 were cervical dislocated and rapidly brain was removed and placed in oxygenated ice-cold sucrose buffer (213 mM sucrose, 10 mM D-glucose, 2.5 mM KCL, 1.25 mM KH2PO4, 2.5 mM CaCl2, 10 mM MgSO4.7H2O, 75 mM NaCl and […] NaHCO3). […] Slope of each Excitatory Post Synaptic Potential […] (fEPSP) is calculated by using MED64-Quad II system and Mobius MED 64 software.

Question: With `COc1ccccc1/C=C/C(=O)/C=C/c1ccccc1OC` [Compound C1, 1,5-bis(2-methoxyphenyl)penta-1,4-dien-3-one] as the compound, how does the “hippocampal CTFs” value ([1]; 10 mg/kg oral 7 months) read?
Answer: significantly reduced

Question: And the “hippocampal Fl-APP levels” value ([1]; 10 mg/kg oral 7 months)?
Answer: but not Fl-APP levels

Question: What about the “levels of phosphorylated Tau (PHF1, AT8)” value ([1]; hippocampus, 10 mg/kg oral 7 months) of the same compound?
Answer: significantly decreased

Question: What about the “levels of LC3-II” value ([1]; oral 7 months) of the same compound?
Answer: significantly increased

Question: What about the “levels of nuclear TFEB” value ([1]; oral 7 months) of the same compound?
Answer: significantly increased

Question: What about the “synaptic plasticity (long-term potentiation induced by TBS, fEPSP slope) vs vehicle” value (5×FAD mice) of the same compound?
Answer: significantly restored
